Data: the supplement of paper PMC10307832

Columns and labels:
Assay in all cases: relative viability (nuclei count vs DMSO), 5 days (fraction); higher = more cells survive
Pimozide = compound: O=c1[nH]c2ccccc2n1C1CCN(CCCC(c2ccc(F)cc2)c2ccc(F)cc2)CC1 [Pimozide]
In short: (§1)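 Lung cancer cell lines were seeded into 1536-well plates, kept overnight at 37 °C and pinned with five library-drug doses (not always all listed) spaced by √10. After 5 days, nuclei were Hoechst-stained, imaged at 4× and counted with MetaXpress. Viability is treated-well nuclei over vehicle-well nuclei, taken as a median across plates. Plates needed control CV below 25% and at least one doubling.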

Docetaxel = compound: CC(=O)O[C@@]12CO[C@@H]1C[C@H](O)[C@@]1(C)C(=O)[C@H](O)C3=C(C)[C@@H](OC(=O)[C@H](O)[C@@H](NC(=O)OC(C)(C)C)c4ccccc4)C[C@@](O)([C@@H](OC(=O)c4ccccc4)[C@H]21)C3(C)C [Docetaxel]
In short: as §1

CPI-613 = compound: O=C(O)CCCCC(CCSCc1ccccc1)SCc1ccccc1 [CPI-613]
In short: as §1

JQ1 = compound: Cc1sc2c(c1C)C(c1ccc(Cl)cc1)=N[C@@H](CC(=O)OC(C)(C)C)c1nnc(C)n1-2 [JQ1]
In short: as §1

Cytarabine = compound: Nc1ccn([C@@H]2O[C@H](CO)[C@@H](O)[C@@H]2O)c(=O)n1 [Cytarabine]
In short: as §1

[1] = compound: Cc1cnc(-c2cnc(NCCNc3ccc(C#N)cn3)nc2-c2ccc(Cl)cc2Cl)[nH]1
In short: as §1

Tivozanib = compound: COc1cc2nccc(Oc3ccc(NC(=O)Nc4cc(C)on4)c(Cl)c3)c2cc1OC [Tivozanib]
In short: as §1

Cell Line	relative viability (Pimozide; 0.08 µM)	relative viability (Pimozide; 0.253 µM)	relative viability (Pimozide; 0.8 µM)	relative viability (Pimozide; 2.53 µM)	relative viability (Pimozide; 8 µM)	relative viability (Docetaxel; 0.0002 µM)	relative viability (Docetaxel; 0.000632 µM)	relative viability (Docetaxel; 0.002 µM)	relative viability (Docetaxel; 0.006325 µM)	relative viability (Docetaxel; 0.02 µM)	relative viability (CPI-613; 5 µM)	relative viability (CPI-613; 15.81 µM)	relative viability (CPI-613; 50 µM)	relative viability (CPI-613; 158.11 µM)	relative viability (CPI-613; 500 µM)	relative viability (JQ1; 0.04 µM)	relative viability (JQ1; 0.1265 µM)	relative viability (JQ1; 0.4 µM)	relative viability (JQ1; 1.265 µM)	relative viability (JQ1; 4 µM)	relative viability (Cytarabine; 0.005 µM)	relative viability (Cytarabine; 0.01581 µM)	relative viability (Cytarabine; 0.05 µM)	relative viability (Cytarabine; 0.1581 µM)	relative viability (Cytarabine; 0.5 µM)	relative viability ([1]; 0.08 µM)	relative viability ([1]; 0.253 µM)	relative viability ([1]; 0.8 µM)	relative viability ([1]; 2.53 µM)	relative viability (Tivozanib; 0.005 µM)	relative viability (Tivozanib; 0.01581 µM)	relative viability (Tivozanib; 0.05 µM)	relative viability (Tivozanib; 0.1581 µM)	relative viability (Tivozanib; 0.5 µM)
NCI-H23	0.95	1.05	0.773	0.851	0.808	0.99	0.725	0.296	0.209	0.137	0.982	0.881	0.943	0.39	0.043	0.919	0.874	0.584	0.274	0.218	0.773	0.564	0.559	0.246	0.203	0.891	0.873	0.941	0.842	0.943	0.966	0.913	0.661	0.61
NCI-H1299	1.02	0.951	0.977	0.995	0.988	0.998	0.975	0.868	0.502	0.37	1	0.984	1	0.992	0.973	0.974	0.851	0.909	0.379	0.308	1.01	1.04	1.01	1.06	1.02	0.968	1.01	1	0.969	1.01	1.03	1.03	1.02	0.952
NCI-H1993	0.822	0.824	0.816	0.969	0.912	0.778	0.964	0.806	0.597	0.5	0.84	0.932	0.967	0.717	0.439	0.919	0.994	0.922	0.663	0.709	0.941	0.916	0.764	0.655	0.519	0.951	0.789	1.03	1.07	0.945	0.867	1.13	0.589	0.762
A-427	0.952	0.967	0.94	0.882	0.845	0.931	0.952	0.439	0.281	0.171	1	0.898	0.939	0.772	0.157	0.902	0.879	0.91	0.653	0.504	0.823	0.449	0.329	0.214	0.204	1.04	0.852	0.959	0.948	0.98	1	1.03	0.902	0.833
